{"source": "patent US20250000883A1", "about": "“TREATING NEUROINFLAMMATORY CONDITIONS” (AN2 Therapeutics, Inc., priority 2021, published 2025)", "tested_on": "Porphyromonas gingivalis", "experiment": "Antibacterial MIC testing (agar dilution, anaerobic)", "format": "cell-based", "details": "supplemented Brucella agar, 44 h, 36° C.", "description": "Epetraborole was placed is a stock solution and stored at −70° C. Serial two-fold dilutions were prepared on the day of testing.\nPorphyromonas gingivalis organisms were recovered from clinical samples, identified by standard methods or by partial sequencing of the 16S gene and stored in 20% skim milk at −70° C. All isolates were taken from the freezer and subcultured at least twice on supplemented Brucella agar to ensure good growth. Inocula were prepared by direct suspensions of cells from 48 h cultures into saline or Brucella broth.\nFor all tested organisms, supplemented Brucella agar deeps were obtained from Anaerobe Systems (Morgan Hill, CA). Defibrinated sheep blood (Hardy Diagnostics, Santa Maria, CA) was frozen and thawed to produce laked blood. On the day of testing, laked blood and the antimicrobial agents were added to the tubes of molten agar before pouring the agar dilution plates. The strains were applied to the plates using a Steers multipronged inoculator for a final concentration of approximately 10^5 cfu/spot. After 44 h incubation at 36° C. in the anaerobic chamber incubator, the plates were examined for growth, and the MICs interpreted."}
{"smiles": "NC[C@H]1OB(O)c2c(OCCCO)cccc21", "note": "[Epetraborole]", "values": [{"measurement": "MIC", "setting": "Po. gingivalis clinical isolate RMA# 15676 (Abd-perit.fld)", "result": 2, "unit": "µg/mL"}, {"measurement": "MIC", "setting": "Po. gingivalis clinical isolate RMA# 15913 (Abd-perit.fld)", "result": 2, "unit": "µg/mL"}, {"measurement": "MIC", "setting": "Po. gingivalis clinical isolate RMA# 16269 (Abd-perit.fld)", "result": 0.125, "unit": "µg/mL"}, {"measurement": "MIC", "setting": "Po. gingivalis clinical isolate RMA# 16389 (Abd-perit.fld)", "result": 0.5, "unit": "µg/mL"}]}
